What was measured:
rabbit [1] = details: Prenatal developmental toxicity study, himalayan, Oral, Gavage/Intubation, dose end: 18 GD
rabbit [2] = details: Prenatal developmental toxicity study, himalayan, Oral, Gavage/Intubation, dose end: 18 GD; remark: listed apart in the source
rat [3] = details: Fertility (Segment I), wistar, Oral, Gavage/Intubation, dose end: 7 GD
rabbit [4] = details: Prenatal developmental toxicity study, himalayan, Injection, Intravenous, dose end: 18 GD, group: maternal
rat [5] = details: Sub-acute repeat dose toxicity; long evans; Oral; Gavage/Intubation; dose end: 4 week; group: systemic; systemic / in life observation / body weight / body weight gain + systemic / in life observation / clinical signs / drooping eyelids (ptosis…
rat [6] = details: Sub-acute repeat dose toxicity, sprague dawley, Oral, Gavage/Intubation, dose end: 4 week, group: systemic
rat [7] = details: Combined chronic toxicity/carcinogenicity, fischer, Oral, Gavage/Intubation, dose end: 2 year, group: systemic
mouse [8] = details: Combined chronic toxicity/carcinogenicity, b6c3f1, Oral, Gavage/Intubation, dose end: 2 year, group: systemic
mouse [9] = details: Subchronic oral toxicity in rodents, b6c3f1, Gavage/Intubation, dose end: 13 week, group: systemic, systemic / pathology microscopic / kidney / vacuolization cytoplasmic + systemic / pathology microscopic / liver / vacuolization cytoplasmic…
rat [10] = details: Subchronic oral toxicity in rodents, fischer, Gavage/Intubation, dose end: 13 week, group: systemic
mouse [11] = details: Combined chronic toxicity/carcinogenicity; other; Oral; Feed; dose end: 365 day; group: systemic; systemic / pathology gross / full gross necropsy / lymphoma malignant
rat [12] = details: Combined chronic toxicity/carcinogenicity; fischer; Oral; Feed; dose end: 365 day; group: systemic; systemic / in life observation / body weight / body weight
[13] = group: developmental, developmental / developmental malformation / paw / digit / [other]
[14] = group: maternal, systemic / in life observation / body weight / body weight gain + systemic / in life observation / clinical signs / [other] + systemic / in …
[15] = group: maternal, systemic / in life observation / clinical signs / ataxia + systemic / in life observation / clinical signs / motor activity + systemic / in …
[16] = group: developmental, developmental / developmental malformation / bone / incomplete ossification + developmental / developmental malformation / bone / short + …
[17] = group: maternal, systemic / in life observation / clinical signs / motor activity + systemic / in life observation / mortality / mortality
[18] = group: maternal, reproductive / reproductive performance / implantations / implantations + reproductive / reproductive performance / preimplantation loss / …
[19] = group: parental, systemic / in life observation / clinical signs / salivation + systemic / in life observation / clinical signs / tremors + systemic / in …
[20] = systemic / in life observation / body weight / body weight gain + systemic / in life observation / food consumption / food consumption + …
[21] = systemic / clinical chemistry / adrenocorticotropic hormone (acth) / adrenocorticotropic hormone (acth)
[22] = systemic / clinical chemistry / adrenocorticotropic hormone (acth) / adrenocorticotropic hormone (acth) + systemic / clinical chemistry / …
[23] = systemic / in life observation / body weight / body weight + systemic / in life observation / body weight / body weight gain
[24] = systemic / in life observation / body weight / body weight + systemic / pathology microscopic / kidney / vacuolization cytoplasmic + …
[25] = systemic / pathology microscopic / kidney / vacuolization cytoplasmic + systemic / pathology microscopic / liver / vacuolization cytoplasmic…
[26] = systemic / in life observation / body weight / body weight + systemic / in life observation / mortality / mortality

COc1cccc([C@H](O)C2CCN(CCc3ccc(F)cc3)CC2)c1OC [Volinanserin]
LEL (rabbit [1]; [13]): 50 mg/kg/day | LOAEL (rabbit [1]; [13]): > 100 mg/kg/day | NEL (rabbit [1]; [13]): < 50 mg/kg/day | NOAEL (rabbit [1]; [13]): ≥ 100 mg/kg/day | LOAEL (rabbit [1]; [14]): > 100 mg/kg/day | NOAEL (rabbit [1]; [14]): ≥ 100 mg/kg/day | LEL (rabbit [1]; [15]): 50 mg/kg/day | NEL (rabbit [1]; [15]): < 50 mg/kg/day | LEL (rabbit [2]; [16]): 40 mg/kg/day | LOAEL (rabbit [2]; [16]): > 40 mg/kg/day | NEL (rabbit [2]; [16]): 12.5 mg/kg/day | NOAEL (rabbit [2]; [16]): ≥ 40 mg/kg/day | LEL (rabbit [2]; [17]): 40 mg/kg/day | LOAEL (rabbit [2]; [17]): > 40 mg/kg/day | NEL (rabbit [2]; [17]): 12.5 mg/kg/day | NOAEL (rabbit [2]; [17]): ≥ 40 mg/kg/day | LEL (rat [3]; [18]): 200 mg/kg/day | LOAEL (rat [3]; [18]): > 200 mg/kg/day | NOAEL (rat [3]; [18]): ≥ 200 mg/kg/day | NEL (rat [3]; [19]): 20 mg/kg/day | NOAEL (rat [3]; [19]): 20 mg/kg/day | LEL (rabbit [4]; systemic / in life observation / body weight / body weight gain + systemic / in life observation / food consumption / food consumption): 3 mg/kg/day | LOAEL (rabbit [4]; [20]): > 4.5 mg/kg/day | NEL (rabbit [4]; [20]): 0.2 mg/kg/day | NOAEL (rabbit [4]; [20]): ≥ 4.5 mg/kg/day | LEL (rat [5]): 150 mg/kg/day | LOAEL (rat [5]): > 150 mg/kg/day | NEL (rat [5]): 50 mg/kg/day | NOAEL (rat [5]): ≥ 150 mg/kg/day | LEL (rat [6]; [21]): 12.5 mg/kg/day | NEL (rat [6]; [21]): < 12.5 mg/kg/day | LOAEL (rat [6]; [22]): > 75 mg/kg/day | NOAEL (rat [6]; [22]): ≥ 75 mg/kg/day

CC(=O)OC(C)c1ccccc1 (stereo not drawn) [Benzenemethanol, alpha-methyl-, acetate]
LEL (rat [7]; [23]): 1000 mg/kg/day | NEL (rat [7]; [23]): < 1000 mg/kg/day | LOAEL (rat [7]; systemic / in life observation / body weight / body weight + systemic / pathology microscopic / kidney / nephropathy): 2000 mg/kg/day | NOAEL (rat [7]; systemic / in life observation / body weight / body weight + systemic / pathology microscopic / kidney / nephropathy + systemic / in life …): 1000 mg/kg/day | LOAEL (mouse [8]; [24]): 1000 mg/kg/day | NOAEL (mouse [8]; [24]): 500 mg/kg/day | LEL (mouse [8]; [25]): 500 mg/kg/day | NEL (mouse [8]; [25]): < 500 mg/kg/day | LEL (mouse [9]): 2000 mg/kg/day | LOAEL (mouse [9]): 2000 mg/kg/day | NEL (mouse [9]): 1000 mg/kg/day | NOAEL (mouse [9]): 1000 mg/kg/day | LOAEL (rat [10]; systemic / in life observation / body weight / body weight): 4000 mg/kg/day | NEL (rat [10]; [26]): 2000 mg/kg/day | NOAEL (rat [10]; [26]): 2000 mg/kg/day | LEL (rat [10]; systemic / in life observation / body weight / body weight + systemic / in life observation / mortality / mortality + systemic / pathology …): 4000 mg/kg/day

Cc1ccc(NC(N)=O)cc1 [p-Tolylurea]
LEL (mouse [11]): 300 mg/kg/day | LOAEL (mouse [11]): > 300 mg/kg/day | NEL (mouse [11]): < 300 mg/kg/day | NOAEL (mouse [11]): ≥ 300 mg/kg/day | LEL (rat [12]): 100 mg/kg/day | LOAEL (rat [12]): > 100 mg/kg/day | NEL (rat [12]): < 100 mg/kg/day | NOAEL (rat [12]): ≥ 100 mg/kg/day

— EPA's ToxRefDB 2
